Assays:
[1] = test system: naïve cord blood T cells; assay: Quantitative RT-PCR of stimulated naïve CD4+ T cells from cord blood; format: cell-based, human; settings: seven days
Protocol: Sorted T cells were stimulated for seven days in the presence of the indicated cytokines, at which point RNA was collected and levels of IL-17A and RORC2 were measured by quantitative RT-PCR. Mean expression and standard error are reported based on three independent experiments using cord blood from three distinct donors.
(§1) PBMCs were obtained from the peripheral blood of healthy subjects or from cord blood (AllCells) in compliance with institutional IRB protocols. CD4+ T cells were subsequently isolated by negative selection using magnetic beads (Miltenyi Biotech Inc., Auburn, Calif.). Naïve (CD25^− CD62L^+ CD45RA^hi) and central memory (CD25^− CD62L^+ CD45RA^−) CD4^+ T cells were obtained by staining with the following antibodies: CD62L-FITC, CD4-PerCP, CD45RA-PE-Cy7, CD25-APC-Cy7 (BD Pharmingen, San Diego, Calif.) and were sorted on a FACS Aria (BD Biosciences, Palo Alto, Calif.).
Naïve or central memory CD4^+ T cells were stimulated with plate-bound anti-CD3 and soluble CD28 monoclonal antibodies (1 μg/ml, each) in serum-free X-VIVO15 medium (Biowhittaker Inc., Walkersville, Md.) and cytokines (IL-6, 25 ng/ml; TGF-β, 5 ng/ml; IL-1β, 12.5 ng/ml; IL-21, 25 ng/ml; IL-23, 25 ng/ml) for a period of seven days, at which point supernatants were collected and tested by ELISA for IFN-β (BD Biosciences) or IL-17A (eBioscience, San Diego, Calif.) using paired antibodies. […]

[2] = test system: human naïve CD4+ T cells; assay: Differentiation assay: naïve CD4+ T cells stimulated with anti-CD3/anti-CD28 plus cytokines for seven days; ELISA and intracytoplasmic staining; format: cell-based; settings: for IFN-β secretion from naïve T cells / IL-17A secretion from naïve CD4+ T cells: ELISA; for IL-17A secretion from naïve CD4+ T cells: serum-free medium
Description: (§2) Error bars represent the standard deviation among three independent experiments using T cells from three unrelated subjects.
as §1
(§3) Naïve or central memory CD4^+ T cells were stimulated with plate-bound anti-CD3 and soluble CD28 monoclonal antibodies (1 μg/ml, each) in serum-free X-VIVO15 medium (Biowhittaker Inc., Walkersville, Md.) and cytokines (IL-6, 25 ng/ml; TGF-β, 5 ng/ml; IL-1β, 12.5 ng/ml; IL-21, 25 ng/ml; IL-23, 25 ng/ml) for a period of seven days, at which point supernatants were collected and tested by ELISA for IFN-β (BD Biosciences) or IL-17A (eBioscience, San Diego, Calif.) using paired antibodies. Intracytoplasmic staining was performed using standard methodologies and anti-IL-17-APC (R&D Systems, Minneapolis, Minn.) and anti-IFN-β-PE (BD Biosciences) antibodies.

[3] = test system: naïve human CD4+ T cells; assay: Quantitative RT-PCR of stimulated naïve CD4+ T cells from peripheral blood; format: cell-based; settings: for IL-22 mRNA: absence of exogenous IL-23; for IL-23 receptor up-regulation: stimulated naïve CD4+ T cells
Protocol: The mean fold-induction (relative to T cells stimulated in the absence of exogenous cytokines) and standard error among three independent experiments using T cells from three unrelated subjects are represented.
as §3
All primers and probes were obtained from Applied Biosystems (Foster City, Calif.), and used according to standard methodologies.

[4] = target: BLT1 (Homo sapiens, UniProt Q15722); settings: Richards et al. 1989; cited from earlier work
[5] = test system: TH17 cells; assay: Chemotaxis chamber assay, TH17 cells; format: cell-based
Protocol: (§4) TH17 or TH1 cells alone or together with different concentrations of LTB4 inhibitor, U75-302, were added to the upper wells of chemotaxis chambers with 10^−8M of LTB4 in the lower wells. Cells were kept at 37° C. in 10% CO2 for 2 hr. Cells from the lower chamber were then stained with anti-CD4 antibody and stimulated for 4 hr with PMA/ionomycin in the presence of Golgi Stop. Cells were permeabilized and stained intracellularly for IL-17 or IFN-γ. The chemotactic index was calculated by dividing the number of CD4^+ IL-17^+ (for TH17 cells) or CD4^+ IFN-γ+ (for TH1 cells) migrated cells in LTB4-containing wells by the number of CD4^+ IL-17^+ (for TH17 cells) or CD4^+ IFN-γ+ (for Th1 cells) cells that migrated spontaneously to media alone.

[6] = test system: human central memory CD4+ T cells; assay: Differentiation assay: central memory CD4+ T cells (TCM) stimulated with anti-CD3/anti-CD28 plus cytokines for seven days; ELISA; format: cell-based
Description: as §2, §1, §3

[7] = test system: TH1 cells; assay: Chemotaxis chamber assay, TH1 cells; format: cell-based; settings: 10^−8M of LTB4 in the lower wells, 2 hr
Protocol: as §4

BLT1, sequence (Q15722 whole entry, species assumed): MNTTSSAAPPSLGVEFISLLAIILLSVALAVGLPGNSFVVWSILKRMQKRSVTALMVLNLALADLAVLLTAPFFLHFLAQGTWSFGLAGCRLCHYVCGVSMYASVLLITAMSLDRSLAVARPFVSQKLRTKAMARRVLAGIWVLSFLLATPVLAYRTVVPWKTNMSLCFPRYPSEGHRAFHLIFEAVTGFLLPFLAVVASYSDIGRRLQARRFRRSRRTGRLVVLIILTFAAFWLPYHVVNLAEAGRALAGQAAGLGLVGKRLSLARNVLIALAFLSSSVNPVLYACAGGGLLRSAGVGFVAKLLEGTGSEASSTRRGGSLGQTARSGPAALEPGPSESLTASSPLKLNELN

For IL-21: cytokine, 25 ng/ml, the “RORC2 mRNA” value [1] was “modestly induced RORC2”, the “TH17 differentiation from naïve CD4+ T cells” value [2] was “does not induce human TH17 differentiation” and the “IFN-β secretion from naïve T cells” value [2] was “induced significant amounts of IFN-β secretion”. The “IL-17A secretion from naïve CD4+ T cells” value [2] was “unable to synergize with endogenous levels of TGF-β to promote IL-17 secretion”, the “IL-21 mRNA” value ([3]; naïve CD4+ T cells) was “significantly up-regulated IL-21” and the “IL-22 mRNA” value ([3]; naïve CD4+ T cells) was “induced IL-22 mRNA levels”. For the same molecule, the IL-23 receptor up-regulation [3] was “induced IL-23 receptor up-regulation”.

For `CCCCC/C=C\C[C@@H](O)/C=C/c1cccc(C[C@@H](O)CCCCO)n1` [U-75302, 6-(6-(3R-hydroxy-1E,5Z-undecadien-1-yl)-2-pyridinyl)-1,5S-hexandiol], the “Binding to BLT1” value [4] is given as “specifically binds BLT1” and the “Block of LTB4-induced migration of Th17 cells” value ([5]; different doses of antagonist in the upper wells) is given as “blocked in a dose dependant manner”.

For IL-6: cytokine, 25 ng/ml, the “IFN-β secretion from naïve T cells” value [2] was “induced significant amounts of IFN-β secretion”, the “Inhibition of the FoxP3 induction by TGF-β” value ([3]; cytokine added with TGF-β) was “inhibited” and the IL-23 receptor up-regulation [3] was “induced IL-23 receptor up-regulation”. The “IL-17A secretion from TCM” value [6] was “little effect”.

For `CCCCC/C=C\C[C@@H](O)/C=C/C=C/C=C\[C@@H](O)CCCC(=O)O` [LTB4, Leukotriene B4], the “Migration (chemotaxis) of TH17 cells” value ([5]; 10^−8M of LTB4 in the lower wells, 2 hr) was “induced the selective migration” and the “Migration (chemotaxis) of TH1 cells” value [7] was “not”.

With “TGF-β: cytokine, 5 ng/ml; doses from 1 ng/ml to 100 ng/ml examined” the “TH17 differentiation from naïve CD4+ T cells” value [2] was “all differentiation/proliferation was suppressed”, the “IL-21 mRNA” value ([3]; naïve CD4+ T cells) was “suppressed the expression of IL-21 and IL-22 mRNA induced by IL-21” and the “IL-22 mRNA” value ([3]; naïve CD4+ T cells) was “suppressed the expression of IL-21 and IL-22 mRNA induced by IL-21”. The FoxP3 expression ([3]; naïve CD4+ T cells, seven days) was “induced”, the “T-bet mRNA expression” value ([3]; naïve CD4+ T cells, seven days) was “suppresses the induction of T-bet by IL-21” and the IL-23 receptor up-regulation [3] was “not”.

For IL-1β: cytokine, 12.5 ng/ml, the “IFN-β secretion from naïve T cells” value [2] was “induced significant amounts of IFN-β secretion”, the “IL-17A secretion from naïve CD4+ T cells” value [2] was “failed, however, to induce IL-17A secretion” and the “IL-21 mRNA” value ([3]; naïve CD4+ T cells) was “induced even greater amounts of IL-21 mRNA”. The IL-23 receptor up-regulation [3] was “induced IL-23 receptor up-regulation” and the “IL-17A secretion from TCM” value [6] was “induced the greatest amount of IL-17A secretion”.

B1: IL-23: cytokine, 25 ng/ml (protein, UniProt Q9NPF7 20-189; P29460 23-328, looked up)
Interleukin-23 subunit alpha: RAVPGGSSPAWTQCQQLSQKLCTLAWSAHPLVGHMDLREEGDEETTNDVPHIQCGDGCDPQGLRDNSQFCLQRIHQGLIFYEKLLGSDIFTGEPSLLPDSPVGQLHASLLGLSQLLQPEGHHWETQQIPSLSPSQPWQRLLLRFKILRSLQAFVAVAARVFAHGAATLSP
Interleukin-12 subunit beta: IWELKKDVYVVELDWYPDAPGEMVVLTCDTPEEDGITWTLDQSSEVLGSGKTLTIQVKEFGDAGQYTCHKGGEVLSHSLLLLHKKEDGIWSTDILKDQKEPKNKTFLRCEAKNYSGRFTCWWLTTISTDLTFSVKSSRGSSDPQGVTCGAATLSAERVRGDNKEYEYSVECQEDSACPAAEESLPIEVMVDAVHKLKYENYTSSFFIRDIIKPDPPKNLQLKPLKNSRQVEVSWEYPDTWSTPHSYFSLTFCVQVQGKSKREKKDRVFTDKTSATVICRKNASISVRAQDRYYSSSWSEWASVPCS
In the case of B1, the “IL-17A secretion from TCM” value [6] is reported as “modestly enhance IL-17A secretion”.

Source: US9732320B2, “Selective differentiation, identification, and modulation of human TH17 cells” (THE BRIGHAM AND WOMEN'S HOSPITAL, INC., priority 2008, dated 2017)
